Data set [1] deals with dogs suffering from asymptomatic (occult, preclinical) heart failure due to mitral valve disease (MVD). Nature of the data set: Interim analysis: pimobendan vs placebo in dogs with asymptomatic heart failure due to MVD. The data set is classed as in vivo.
Data set [2] deals with dogs with MMVD and echocardiographic and radiographic evidence of cardiomegaly. The settings on record: dog, in vivo.
Data set [3] has the same test system. As to the kind of experiment: Blinded, placebo controlled study of 360 dogs (preliminary analysis of final results).
For the next data set, the system named is dogs. The following applies: two dogs; long-term (chronic) clinical therapy; Tissier R et al. 2005; cited from earlier work.
Data set [4] concerns dogs with asymptomatic mitral valve disease. The following applies: after addition of pimobendan to ACE inhibitor treatment; Ouellet M et al. 2009; cited from earlier work.

As for `COc1ccc(-c2nc3ccc(C4=NNC(=O)CC4C)cc3[nH]2)cc1` (stereo not shown) [pimobendan, 4,5-dihydro-6-[2-(4-methoxyphenyl)-1H-benzimidazol-5-yl]-5-methyl-3(2H)-pyridazinone], the “extension of survival time (all-cause mortality) compared to placebo” value in data set [1] (also printed as 5.6 months) is “approx. 168 days”. The “prolongation of time to the onset of clinical signs of congestive heart failure compared to placebo” value in data set [1] (also printed as 12.0 months) is listed as “approx. 359 days”. Besides, in data set [2], the safety and tolerability entry was “safe and well tolerated”. Also, the heart size result in data set [3] (compared to the placebo group, measured over the first 35 days of the study, P<0.0001) was “reduction in heart size”. The “rate or type of potential adverse events” value in data set [3] (pimobendan group vs placebo group) was “no difference between groups”. The “Median time to the primary endpoint” value in data set [3] (pimobendan group, 95% CI 856—NA, placebo group 766 days, P=0.0038) was determined as 1228 days. Also, in data set [3] (vs placebo group), the “Prolongation of the preclinical period” value was “approximately 15 months”. In data set [3] (vs placebo group, P=0.012), the “Overall survival, as determined by All Cause Mortality” value was “significantly longer”. Besides, the adverse effects entry with dogs is “increased mitral valve regurgitation and myocardial hypertrophy”. In addition, in data set [4], the “long-term changes in the severity of mitral regurgitation” value is given as “failed to identify beneficial long-term changes”.

The values above are taken from US10537570B2, “Use of pimobendan for the reduction of heart size and/or the delay of onset of clinical symptoms in patients with asymptomatic heart failure due to mitral valve disease” (priority 2016, dated 2020).
